The assay relates to TLR-induced TNF-α release in human peripheral blood mononuclear cells (PBMC). The assay can be described thus: TLR-induced cytokine release in human PBMC (TNF-alpha, ELISA). The class given is cell-based. As to conditions: human PBMC stimulated with TLR ligand, 18 hours incubation. As to the method: TLR-Induced Cytokine Release in Human “Peripheral Blood Mononuclear Cells” (PBMC)
PBMCs isolated from human whole blood are stimulated using a TLR ligand.
The cytokine determination is carried out by means of ELISA kits; a proliferation/cell metabolism determination is carried out using Alamar Blue.
For the cell preparation, about 200 ml of blood are treated with an anticoagulant (e.g. citrate Monovettes). Per Leucosep tube, 15 ml of Histopaque (room temperature, RT) are poured in and pressed downwards through the frit employed by brief initial centrifugation (one minute at 1000×g, RT). 20 ml of blood are added to the tubes prepared in this way and centrifuged at 800×g for 15 minutes (RT). After centrifugation, the following layered arrangement results from the top to the bottom: plasma—PBMC Histopaque—filter disc—Histopaque—erythrocytes and granulocytes. The supernatant plasma is aspirated. The PBMC are transferred together with the underlying Histopaque to a new 50 ml tube, the contents of two Leucosep tubes always being added to one 50 ml tube. The 50 ml tubes are then filled to 50 ml with PBS. This cell suspension is centrifuged at 300×g (RT) for 10 minutes. The liquid supernatant is tipped off and the cell pellet is resuspended with a little PBS and subsequently filled to 50 ml with PBS. […] The metabolic activity of the treated cells is determined with the aid of Alamar Blue.
Background: In an ELISA, binding on a coated surface is turned into a signal by an enzyme label.

Drawing on patent US8841311B2, “Sulphone-substituted quinazoline derivatives as immuno-modulators, their preparation and use as medicaments” (Bayer Intellectual Property GmbH, priority 2008, dated 2014), this text covers IC50 for one compound.

Usually IC50 stands for the concentration at which inhibition is half-maximal. Read a high IC50 as weaker potency.

Take `COc1cc2c(NC(C)C)ncnc2cc1OCc1cccc(S(C)(=O)=O)c1` [Example 2.1, Isopropyl[7-(3-methanesulphonylbenzyloxy)-6-methoxyquinazolin-4-yl]amine]: the IC50 worked out at 3 µM.
